The record followed here is patent US20250145594A1, “MODULATORS OF THE INTEGRATED STRESS PATHWAY” (Calico Life Sciences LLC, priority 2020, published 2025).

A word on the EC50: it is the concentration giving half of the maximal effect.

The structures appear in SMILES notation. Bounds are passed on as bounds.

This assay deals with ATF4 luciferase reporter in HEK293T cells. In words: ATF4-Luc assay (in vitro model of VWMD). Particulars: Homo sapiens, HEK-293T, 7 h, HEK293T cells carrying the ATF4 luciferase reporter, 1 μg/mL tunicamycin, One Glo luminescence. The class given is cell-based, human. An outline of the steps: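 Tunicamycin (1 μg/mL) stress with co-added compound for 7 hours in HEK293T cells stably carrying an ATF4 5′-UTR–luciferase reporter. EC50 values come from the luminescent signal (One Glo).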
(In general: In a reporter assay the amount or activity of a reporter protein is the signal.)

As to `O=C(NC12CC(n3cc(OCCOC(F)(F)F)cn3)(C1)C2)[C@H]1C[C@H](O)c2cc(Cl)ccc2O1` [Compound 632, (2R,4S)-6-chloro-4-hydroxy-N-(3-{4-[2-(trifluoromethoxy)ethoxy]-1H-pyrazol-1-yl}bicyclo[1.1.1]pentan-1-yl)-3,4-dihydro-2H-1-benzopyran-2-carboxamide], the EC50 lay within 10 to 50 nM. The result for `O=C(NC12CCC(n3cc(OCCCOC(F)(F)F)cn3)(C1)C2)[C@H]1C[C@@H](O)c2cc(Cl)c(F)cc2O1` [Compound 629, (2R,4R)-6-chloro-7-fluoro-4-hydroxy-N-(4-{4-[3-(trifluoromethoxy)propoxy]-1H-pyrazol-1-yl}bicyclo[2.1.1]hexan-1-yl)-3,4-dihydro-2H-1-benzopyran-2-carboxamide] reads 10 to 50 nM; that for `O=C(NC12CC(n3cc(C(=O)N4CC[C@H](OC(F)(F)F)C4)cn3)(C1)C2)[C@@H]1C[C@@H](O)c2cc(C(F)(F)F)ccc2O1` [Compound 378, (2S,4R)-4-hydroxy-N-(3-{4-[(3S)-3-(trifluoromethoxy)pyrrolidine-1-carbonyl]-1H-pyrazol-1-yl}bicyclo[1.1.1]pentan-1-yl)-6-(trifluoromethyl)-3,4-dihydro-2H-1-benzopyran-2-carboxamide], less than 10 nM; that for `O=C(NC12CC(n3cc(C(=O)N4CC(COC(F)(F)F)C4)cn3)(C1)C2)[C@H]1C[C@@H](O)c2cc(F)c(F)cc2O1` [Compound 374, (2R,4R)-6,7-difluoro-4-hydroxy-N-[3-(4-{3-[(trifluoromethoxy)methyl]azetidine-1-carbonyl}-1H-pyrazol-1-yl)bicyclo[1.1.1]pentan-1-yl]-3,4-dihydro-2H-1-benzopyran-2-carboxamide], 50 to 250 nM.

For `O=C(NC12CC(c3cn(-c4ccc(Cl)c(F)c4)nn3)(C1)C2)[C@H]1C[C@@H](O)c2cc(Cl)ccc2O1` [Compound 311, (2R,4R)-6-chloro-N-{3-[1-(4-chloro-3-fluorophenyl)-1H-1,2,3-triazol-4-yl]bicyclo[1.1.1]pentan-1-yl}-4-hydroxy-3,4-dihydro-2H-1-benzopyran-2-carboxamide], the concentration for a half-maximal effect (EC50) was less than 10 nM. The result for `O=C(NC12CC(n3cnc(C(=O)N4CC(COC(F)(F)F)C4)c3)(C1)C2)[C@H]1C[C@@H](O)c2cc(Cl)ccc2O1` [Compound 368, (2R,4R)-6-chloro-4-hydroxy-N-[3-(4-{3-[(trifluoromethoxy)methyl]azetidine-1-carbonyl}-1H-imidazol-1-yl)bicyclo[1.1.1]pentan-1-yl]-3,4-dihydro-2H-1-benzopyran-2-carboxamide] reads 10 to 50 nM. Next, `O=C(NC12CC(n3cc([C@H]4C[C@@H](OC(F)F)C4)nn3)(C1)C2)[C@H]1C[C@@H](O)c2cc(Cl)ccc2O1` [Compound 544, (2R,4R)-6-chloro-N-(3-{4-[(1s,3S)-3-(difluoromethoxy)cyclobutyl]-1H-1,2,3-triazol-1-yl}bicyclo[1.1.1]pentan-1-yl)-4-hydroxy-3,4-dihydro-2H-1-benzopyran-2-carboxamide]: less than 10 nM; `O=C(NC12CCC(n3cc(OCCOC(F)(F)F)cn3)(C1)C2)[C@H]1C[C@@H](O)c2cc(Cl)c(F)cc2O1` [Compound 590, (2R,4R)-6-chloro-7-fluoro-4-hydroxy-N-(4-{4-[2-(trifluoromethoxy)ethoxy]-1H-pyrazol-1-yl}bicyclo[2.1.1]hexan-1-yl)-3,4-dihydro-2H-1-benzopyran-2-carboxamide]: 10 to 50 nM; `O=C(COc1ccc(Cl)c(F)c1)NC12CC(C(=O)NC34CC(C(F)(F)F)(C3)C4)(C1)C2` [Compound 353, 3-[2-(4-chloro-3-fluorophenoxy)acetamido]-N-[3-(trifluoromethyl)bicyclo[1.1.1]pentan-1-yl]bicyclo[1.1.1]pentane-1-carboxamide]: 50 to 250 nM. Next, `O=C(COc1cc(F)c(Cl)c(Br)c1)N[C@H]1C[C@H]2C[C@@H]1C[C@@H]2NC(=O)CO[C@H]1C[C@@H](OC(F)(F)F)C1` [Compound 381, 2-(3-bromo-4-chloro-5-fluorophenoxy)-N-[(1R,2S,4R,5S)-5-(2-{[cis-3-(trifluoromethoxy)cyclobutyl]oxy}acetamido)bicyclo[2.2.1]heptan-2-yl]acetamide]: 10 to 50 nM; `O=C(N[C@H]1CC[C@H](n2cc(OCCOC(F)(F)F)cn2)CC1)[C@H]1C[C@@H](O)c2cc(Cl)c(F)cc2O1` [Compound 419, (2R,4R)-6-chloro-7-fluoro-4-hydroxy-N-[(1r,4R)-4-{4-[2-(trifluoromethoxy)ethoxy]-1H-pyrazol-1-yl}cyclohexyl]-3,4-dihydro-2H-1-benzopyran-2-carboxamide]: less than 10 nM; `O=C(NC12CC(c3ccc(C(=O)N4CC(OC(F)(F)F)C4)nc3)(C1)C2)[C@H]1C[C@@H](O)c2cc(Cl)ccc2O1` [Compound 536, (2R,4R)-6-chloro-4-hydroxy-N-(3-{6-[3-(trifluoromethoxy)azetidine-1-carbonyl]pyridin-3-yl}bicyclo[1.1.1]pentan-1-yl)-3,4-dihydro-2H-1-benzopyran-2-carboxamide]: less than 10 nM. With `O=C(N[C@H]1CC[C@H](n2cc(-c3ccc(C(F)(F)F)cn3)cn2)CC1)[C@H]1C[C@@H](O)c2cc(Cl)ccc2O1` [Compound 577, (2R,4R)-6-chloro-4-hydroxy-N-[(1r,4R)-4-{4-[5-(trifluoromethyl)pyridin-2-yl]-1H-pyrazol-1-yl}cyclohexyl]-3,4-dihydro-2H-1-benzopyran-2-carboxamide], the EC50 was less than 10 nM. Next, `O=C(NC12CC(n3cc(-c4ccc(OC(F)(F)F)cn4)cn3)(C1)C2)[C@H]1C[C@H](O)c2cc(C(F)(F)F)ccc2O1` [Compound 551, (2R,4S)-4-hydroxy-N-(3-{4-[5-(trifluoromethoxy)pyridin-2-yl]-1H-pyrazol-1-yl}bicyclo[1.1.1]pentan-1-yl)-6-(trifluoromethyl)-3,4-dihydro-2H-1-benzopyran-2-carboxamide]: less than 10 nM. The result for `O=C(NC12CC(n3cc4cc(COCC(F)(F)F)ccc4n3)(C1)C2)[C@H]1C[C@@H](O)c2cc(Cl)ccc2O1` [Compound 650, (2R,4R)-6-chloro-4-hydroxy-N-(3-{5-[(2,2,2-trifluoroethoxy)methyl]-2H-indazol-2-yl}bicyclo[1.1.1]pentan-1-yl)-3,4-dihydro-2H-1-benzopyran-2-carboxamide] reads less than 10 nM; that for `O=C(COc1ccc(Cl)c(F)c1)NC12CC(n3cc(OC[C@H]4C[C@@H](OC(F)(F)F)C4)cn3)(C1)C2` [Compound 612, 2-(4-chloro-3-fluorophenoxy)-N-[3-(4-{[(1s,3s)-3-(trifluoromethoxy)cyclobutyl]methoxy}-1H-pyrazol-1-yl)bicyclo[1.1.1]pentan-1-yl]acetamide], less than 10 nM. The result for `O=C(NC12CC(n3cc(-c4ccc(C(F)(F)F)cn4)cn3)(C1)C2)[C@H]1C[C@H](O)c2cc(Cl)ccc2O1` [Compound 546, (2R,4S)-6-chloro-4-hydroxy-N-(3-{4-[5-(trifluoromethyl)pyridin-2-yl]-1H-pyrazol-1-yl}bicyclo[1.1.1]pentan-1-yl)-3,4-dihydro-2H-1-benzopyran-2-carboxamide] reads 10 to 50 nM; that for `O=C(NC12CC(n3cc(-c4ccc(C(F)(F)F)cn4)cn3)(C1)C2)[C@H]1C[C@@H](O)c2cc(C(F)(F)F)c(F)cc2O1` [Compound 484, (2R,4R)-7-fluoro-4-hydroxy-6-(trifluoromethyl)-N-(3-{4-[5-(trifluoromethyl)pyridin-2-yl]-1H-pyrazol-1-yl}bicyclo[1.1.1]pentan-1-yl)-3,4-dihydro-2H-1-benzopyran-2-carboxamide], less than 10 nM.

Turning to `O=C(NC12CC(n3cnc(C(=O)N4CC[C@@H](OC(F)(F)F)C4)c3)(C1)C2)[C@H]1C[C@@H](O)c2cc(Cl)ccc2O1` [Compound 321, (2R,4R)-6-chloro-4-hydroxy-N-(3-{4-[(3R)-3-(trifluoromethoxy)pyrrolidine-1-carbonyl]-1H-imidazol-1-yl}bicyclo[1.1.1]pentan-1-yl)-3,4-dihydro-2H-1-benzopyran-2-carboxamide], the EC50 lay in the range of 10 to 50 nM. The result for `C[C@H](COC(F)(F)F)N(C)c1cnn(C23CC(NC(=O)[C@H]4C[C@@H](O)c5cc(Cl)ccc5O4)(C2)C3)c1` [Compound 448, (2R,4R)-6-chloro-4-hydroxy-N-[3-(4-{methyl[(2R)-1-(trifluoromethoxy)propan-2-yl]amino}-1H-pyrazol-1-yl)bicyclo[1.1.1]pentan-1-yl]-3,4-dihydro-2H-1-benzopyran-2-carboxamide] reads 500 to 2000 nM; that for `O=C(COc1ccc(Cl)cc1O)NC12CC(n3cc([C@H]4C[C@@H](OC(F)(F)F)C4)nn3)(C1)C2` [Compound 618, 2-(4-chloro-2-hydroxyphenoxy)-N-(3-{4-[(1s,3s)-3-(trifluoromethoxy)cyclobutyl]-1H-1,2,3-triazol-1-yl}bicyclo[1.1.1]pentan-1-yl)acetamide], 10 to 50 nM. The result for `O=C(NC12CC(n3cc(-c4ccc(C(F)(F)F)cn4)cn3)(C1)C2)[C@H]1C[C@H](O)c2cc(C(F)(F)F)c(F)cc2O1` [Compound 640, (2R,4S)-7-fluoro-4-hydroxy-6-(trifluoromethyl)-N-(3-{4-[5-(trifluoromethyl)pyridin-2-yl]-1H-pyrazol-1-yl}bicyclo[1.1.1]pentan-1-yl)-3,4-dihydro-2H-1-benzopyran-2-carboxamide] reads less than 10 nM; that for `O=C(NC12CC(c3cnc(OCCOC(F)(F)F)o3)(C1)C2)[C@H]1C[C@@H](O)c2cc(Cl)c(F)cc2O1` [Compound 416, (2R,4R)-6-chloro-7-fluoro-4-hydroxy-N-(3-{2-[2-(trifluoromethoxy)ethoxy]-1,3-oxazol-5-yl}bicyclo[1.1.1]pentan-1-yl)-3,4-dihydro-2H-1-benzopyran-2-carboxamide], less than 10 nM. The result for `O=C(NC12CC(n3cc4cc(OC(F)(F)F)ccc4n3)(C1)C2)[C@H]1C[C@@H](O)c2cc(Cl)ccc2O1` [Compound 509, (2R,4R)-6-chloro-4-hydroxy-N-{3-[5-(trifluoromethoxy)-2H-indazol-2-yl]bicyclo[1.1.1]pentan-1-yl}-3,4-dihydro-2H-1-benzopyran-2-carboxamide] reads 10 to 50 nM.
